The METLIN SMRT retention time set (Domingo-Almenara et al. 2019)

Test: gradient 5% acetonitrile 3 min, to 50% in 2 min, to 85% in 15 min, held 3 min, 100 µL/min
Conditions: column: Zorbax Extend-C18 2.1 x 50 mm; eluents: water / acetonitrile, 0.1% formic acid
How it was run: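 Over 3 months, pure standards in mixtures of ~100 molecules were run by HPLC coupled to a quadrupole time-of-flight mass spectrometer in positive and negative ionization mode. The column was a Zorbax Extend-C18 (2.1 × 50 mm, 1.8 μm) at 100 μL/min, eluted with water and acetonitrile each holding 0.1% formic acid, with 40 μL dead and 900 μL dwell volumes. Retention time was determined from adduct peaks chosen by software and checked manually.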

SMILES | RP-LC retention time [s]
CN(C)c1nccnc1OC1CCN(C(=O)c2ccn[nH]2)C1 (stereo unspecified) | 604
COCC(=O)N1CCN(c2nc(CN3CCC(C)CC3)cs2)CC1 | 570
CCOc1ccc(S(=O)(=O)N2CCC(C(=O)Nc3ccc(C(N)=O)cc3)CC2)cc1C | 782
CCC(C)NC(=O)Cn1nc(C)c2sc(-c3ccccc3)nc2c1=O (stereo unspecified) | 765
CCn1nnc2c(SCC(=O)Nc3cccc(C(F)(F)F)c3)ncnc21 | 866
Cc1ccc(Cl)cc1N1CCN(c2cc(C(=O)O)c3cc(NC(=O)CC(C)C)ccc3n2)CC1 | 828
N#Cc1ccc(NC2c3ccccc3CC2O)cc1 (stereo unspecified) | 822
Cn1nccc1-c1cccc(-c2noc(-c3cccs3)n2)c1 | 1030
CN(C)S(=O)(=O)c1ccc(CNC(=O)c2cccc(-c3nnc(-c4ccccc4)o3)c2)s1 | 904
Cc1sc(-c2cc(C(F)(F)F)[nH]n2)cc1S(=O)(=O)N1CC=C(c2ccccc2)CC1 | 1190
Cc1ccc(-c2nnc(-c3nc(NCCc4ccco4)c4ccccc4n3)o2)cc1 | 1030
CN(C)S(=O)(=O)c1ccc(-c2nnc(C(=O)NCc3ccccc3)o2)cc1 | 831
Cc1ccc(-c2noc(Cn3nc(-c4ccccc4)ccc3=O)n2)cc1 | 1080
CCCCS(=O)(=O)N1CC(c2noc(-c3cccnc3)n2)C2(CCOCC2)C1 (stereo unspecified) | 788
Cc1ccc(NC(=O)NCCC2CCN(S(=O)(=O)c3ccc(F)cc3)CC2)cc1 | 925
CCOC(=O)C1=C(CN2CCc3ccccc3C2)NC(=O)NC1c1cccc(OC)c1OC (stereo unspecified) | 660
COc1ccc(-c2ccnn2-c2ccc(SCc3ccc(C)cc3)nn2)cc1 | 1420
COc1ccc(CN2C=C(C(=O)OCc3nc(-c4ccccc4F)no3)C(C)=NS2(=O)=O)cc1 | 1060
O=C(Nc1cnc(N2CCOCC2)nc1)c1cccc(Cl)c1 | 793
Cc1ccc(Sc2nccnc2N2CCCC(C(=O)N3CCN(c4ccccn4)CC3)C2)cc1 (stereo unspecified) | 768
CCN1CCC(Nc2ccnc3cc(Cl)ccc23)CC1 | 588
CN(CC1CCCO1)S(=O)(=O)c1ccc(C(=O)Nc2ccc3sccc3c2)cc1 (stereo unspecified) | 891

SMILES | RP-LC retention time [s]
CCOc1ccccc1NC(=O)C1CCN(S(C)(=O)=O)c2cc(C)ccc2O1 (stereo unspecified) | 830
COc1ccc(Nc2nccc(C3CCCN(C(=O)C4CCCCC4)C3)n2)cc1 (stereo unspecified) | 997
CCc1cccc2c1[nH]c1cc(NC(=O)CCc3c(C)[nH]c(=O)[nH]c3=O)ccc12 | 677
Cc1nc(-c2ccc(N3CCN(C(=O)c4cc(Cl)ccc4F)CC3)nc2)sc1C | 990
CNC(=O)Cc1ccc(NC(=O)NC2CCCCC2)cc1 | 642
O=C(CCc1conc1-c1ccc(F)cc1)NCC1CCCCC1 | 996
CCC(CC)C(=O)Nc1c(-c2ccc(OC)cc2)nc2cc(C)ccn12 | 672
COc1cc(OC)c(NC(=O)N(C)Cc2nc3cc(C(=O)N4CCCC4)ccc3n2C)cc1Cl | 640
CCOC(=O)Cc1c(C)nc2cc(-c3ccccc3)nn2c1C | 1020
O=S(=O)(c1ccccc1)N1CCc2nc(-c3ccccc3)ncc2C1 | 1010
COCc1nncn1C1CCN(S(=O)(=O)c2cccc(OC)c2)CC1 | 751
CN1CCN(CCNC(=O)c2ccc3nc(-c4ccc(Cl)cc4)cn3c2)CC1 | 579
CN(C)CCCNC(=O)C1CCN(c2nc3ccc(-c4ccccc4)nc3s2)CC1 | 668
COc1ccc(C2CCCN2C(=O)c2cccs2)cc1 (stereo unspecified) | 888
Cc1nnc(N2CCCC(C(=O)NCCc3ccco3)C2)c2nn(-c3ccc(Cl)cc3)c(C)c12 (stereo unspecified) | 743
COc1ccc(-c2noc(C3CC(=O)N(c4ccc(OC)c(Cl)c4)C3)n2)c(OC)c1 (stereo unspecified) | 1010
COc1ccccc1CNC(=O)c1cn2c(n1)CCCC2 | 589
Brc1ccc(Nc2c(-c3ccc4c(c3)OCO4)nc3cnccn23)cc1 | 921
Cc1nn(C)c2nc(OC(C)C(=O)NCc3cccs3)cc(-c3ccccc3)c12 (stereo unspecified) | 1040
CCCn1c(C2CCN(S(=O)(=O)c3ccccc3)C2)nc2cccnc21 (stereo unspecified) | 783
O=C(NCCc1ccccc1)C(=O)NCC1COc2ccccc2O1 (stereo unspecified) | 960
CCCn1cc(CCNC(=O)c2cccc(Br)c2)c2cccnc21 | 833

SMILES | RP-LC retention time [s]
CSc1cccc(NC(=O)Cn2c(C)nc3c(c2=O)CN(Cc2ccccc2)CC3)c1 | 587
CC(=O)c1ccc(NC(=O)c2cc(C(F)(F)F)n(C)n2)cc1 | 871
COc1ccc(-c2nc3cnccn3c2Nc2cccc(Cl)c2C)cc1 | 965
COc1cc2c(Nc3ccc(NC(=O)c4ccccc4)cc3)ncnc2cc1OCCCN1CCOCC1 | 627
COCCCNC(=O)C1CCN(C2=NS(=O)(=O)C(c3ccc(Cl)cc3)=C2C)CC1 | 748
Cc1nc(S(=O)(=O)N2CCc3c(c(-c4nnc(-c5ccccc5F)o4)nn3C)C2)cn1C | 703
CCOc1ccccc1NC(=O)c1csc2c1CCC(C)C2 (stereo unspecified) | 1320
COCCNS(=O)(=O)c1cccc(-c2nnc(-c3ccc(C)cc3)o2)c1 | 880
COC(=O)c1ccccc1NC(=O)N1CCN(Cc2nc(-c3cccc(Cl)c3)oc2C)CC1 | 809
CCNc1ncnc2sc3c(c12)CCN(C(=O)COC)C3 | 601
COc1cc(NC(=O)N2CCC(N3CCN(Cc4ccc(F)cc4)C(=O)C3=O)CC2)cc(OC)c1 | 724
COC(=O)c1nnc2c(-c3ccc(F)cc3)c(C)nn2c1C | 855
CCCNC(=O)N1CCC2(CC1)C(=O)N(C)c1ccccc12 | 708
Cn1cc(C(=O)NC2CCN(Cc3ccccc3)CC2)c2cccnc21 | 594
Cc1ccc(Cn2cccc(C(=O)Nc3nc4c(C)cccc4s3)c2=O)cc1 | 1240
CC(C)n1cnc(S(=O)(=O)N2CCC(C(=O)Nc3ccc(F)c(Cl)c3)CC2)c1 | 834
Cc1ccc(CCNC(=O)C2CCCN(c3nnc(C)c4c(C)n(-c5ccc(C)cc5)nc34)C2)cc1 (stereo unspecified) | 815
CCOc1ccccc1NC(=O)Nc1ccc2c(c1)CCN2S(=O)(=O)c1ccccc1 | 1040
O=S(=O)(c1ccc2c(c1)-c1oncc1CO2)N1CCN(c2ccc(F)cc2)CC1 | 1040
CCc1cc(=O)n(CC(=O)N2CCc3ccccc32)c(N2CCOCC2)n1 | 734
CC(C)CCNC(=O)NCCC1CCN(S(=O)(=O)c2ccc(F)cc2)CC1 | 880
CC(=O)NCc1nc(-c2ccc(S(=O)(=O)N3CCC(C(=O)N4CCCC4)CC3)cc2)no1 | 639
